For 3 compounds, TGI results are on record in PubChem BioAssay (NCI).

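1) Cells in 96-well plates. 2) Compound, 48 h, 5 concentrations. 3) Linear interpolation between surrounding doses. 4) Unreached endpoint = highest concentration. At the TGI there is no net growth.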

Some test systems named below: UACC-62 melanoma; TK-10 renal; HL-60(TB) leukemia; MOLT-4 leukemia; A549 NSCLC; KM12 colon; OVCAR-8 ovarian; UACC-257 melanoma; U251 CNS; SR leukemia.
Holding throughout (experiment): NCI tumour cell line growth inhibition, 48 h

For `IC[P+]1(c2ccccc2)CCCC1`, the TGI in the experiment with UACC-62 melanoma, in the experiment on TK-10 renal, in the experiment with HL-60(TB) leukemia, in the experiment with MOLT-4 leukemia, in the experiment with A549 NSCLC and with KM12 colon was over 100 µM each time. The TGI is over 100 µM in the experiment with OVCAR-8 ovarian, over 100 µM in the experiment on UACC-257 melanoma, 29.4 µM with U251 CNS and over 100 µM in the experiment with SR leukemia.

In the case of `Cc1c(OC(C)C(=O)O)ccc2c(-c3ccccc3)cc(=O)oc12` (stereo not given), the TGI in the experiment on UACC-62 melanoma, with TK-10 renal, in the experiment on HL-60(TB) leukemia, in the experiment on MOLT-4 leukemia, with A549 NSCLC and in the experiment with KM12 colon was over 100 µM throughout. The TGI in the experiment with OVCAR-8 ovarian, in the experiment with UACC-257 melanoma, in the experiment with U251 CNS and in the experiment with SR leukemia was over 100 µM throughout.

Turning to `COC(=O)C1=CO[C@@H](OC2CC(CO)C(O)C(O)C2O)[C@@H]2[C@@H](C)[C@@H](OC(=O)/C=C/c3ccccc3)[C@@H](O)[C@H]12` (stereo not given in full) (tested in a mixture with another compound), the TGI in the experiment with UACC-62 melanoma, in the experiment with TK-10 renal, with HL-60(TB) leukemia, with MOLT-4 leukemia, with A549 NSCLC and in the experiment on KM12 colon was over 100 µM in each case. Also, the TGI in the experiment on OVCAR-8 ovarian, with UACC-257 melanoma, in the experiment on U251 CNS and in the experiment with SR leukemia was over 100 µM in each case.
